Patent US11040035B2, “3-oxo-2,6-diphenyl-2,3-dihydropyridazine-4-carboxamides” (BAYER PHARMA AKTIENGESELLSCHAFT, priority 2016, dated 2021)

Tests used:
AHR [1] = target: T1, AHR (Homo sapiens, UniProt P35869); assay: In vitro assay 1: antagonism in human cell line (transactivation assay, kynurenic acid prestimulated); conditions: Assay 1: AHR-luc Hum Antagonism IC50 [M], 150 μM kynurenic acid, 20 hours, firefly luciferase
T1 sequence (P35869 11-848): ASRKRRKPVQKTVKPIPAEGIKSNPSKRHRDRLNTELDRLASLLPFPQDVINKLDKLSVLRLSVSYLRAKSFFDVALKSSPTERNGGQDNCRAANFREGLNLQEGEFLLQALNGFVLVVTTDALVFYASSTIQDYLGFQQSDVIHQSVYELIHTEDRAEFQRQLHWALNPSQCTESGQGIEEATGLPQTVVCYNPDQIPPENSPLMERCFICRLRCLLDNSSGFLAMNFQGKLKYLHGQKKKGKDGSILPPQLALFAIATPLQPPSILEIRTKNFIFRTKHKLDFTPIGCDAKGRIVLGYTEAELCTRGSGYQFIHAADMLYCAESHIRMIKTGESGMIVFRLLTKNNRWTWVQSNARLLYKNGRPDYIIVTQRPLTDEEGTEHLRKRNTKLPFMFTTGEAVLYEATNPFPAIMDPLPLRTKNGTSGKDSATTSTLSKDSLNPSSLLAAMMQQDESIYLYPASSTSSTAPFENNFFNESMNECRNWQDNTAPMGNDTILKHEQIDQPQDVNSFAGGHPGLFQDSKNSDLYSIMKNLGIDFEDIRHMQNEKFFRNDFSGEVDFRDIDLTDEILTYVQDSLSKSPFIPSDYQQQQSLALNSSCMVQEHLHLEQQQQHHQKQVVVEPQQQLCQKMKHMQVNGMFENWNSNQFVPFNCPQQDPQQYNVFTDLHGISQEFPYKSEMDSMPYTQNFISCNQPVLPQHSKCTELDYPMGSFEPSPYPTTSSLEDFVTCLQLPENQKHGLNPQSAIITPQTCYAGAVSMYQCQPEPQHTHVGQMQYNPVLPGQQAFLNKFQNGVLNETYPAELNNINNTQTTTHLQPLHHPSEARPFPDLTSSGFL
Procedure: Transactivation assays were carried out in U87 glioblastoma cells (ATCC) endogenously expressing AHR. In addition the cells were stably transfected with an AHR inducible firefly luciferase reporter gene construct that carried AHR-binding sites (DRE) in its promoter and a renilla reporter gene construct with constitutively active promoter. Kynurenic acid is an endogenous AHR activating ligand and was used to prestimulate test cells prior to testing the antagonistic properties of compounds.
In Vitro Assay 1: Antagonism in Human Cell Line
Cells in medium (tryptophan free RPMI, 1% FCS, 2 mM Glutamine) supplemented with 150 μM kynurenic acid were grown for 20 hours in absence (negative control) or presence of increasing concentrations of test compounds (typical dilutions: 72 pmol/L, 0.25 nmol/L, 0.89 nmol/L; 3.1 nmol/L, 11 nmol/L, 38 nmol/L, 130 nmol/L, 470 nmol/L, 1.6 μmol/L, 5.7 μmol/L and 20 μmol/L in duplicates). As positive inhibition control cells supplemented with 150 μM kynurenic acid were incubated in presence of 5 μM Staurosporin. Normalization was done by positive and negative controls.
Firefly luciferase and Renilla activity was determined by the DualGlo Luciferase Assay System (Promega, #2920).

AHR [2] = target: T1, AHR; assay: In vitro assay 2: agonism in human cell line (transactivation assay)
[3] = Assay 2: AHR-luc Hum Agonism IC50 [M], no kynurenic acid, 20 hours, firefly luciferase
[4] = read-out: Assay 2: AHR-luc Hum Agonism IC50, no kynurenic acid, 20 hours, firefly luciferase

O=C(NCC(O)C(F)(F)F)c1cc(-c2ccc(Cl)c(F)c2)nn(-c2cc(F)cc(F)c2)c1=O (single isomer, unassigned) [Example 404, 6-(4-chloro-3-fluorophenyl)-2-(3,5-difluorophenyl)-3-oxo-N-(3,3,3-trifluoro-2-hydroxypropyl)-2,3-dihydropyridazine-4-carboxamide]
IC50 (AHR [1]): 2.7e-07 M | IC50 (AHR [2]; [3]): > 2e-05 M

O=C(NCC(O)C1CC1)c1cc(-c2ccc(Cl)cc2)nn(-c2cccc(F)c2)c1=O (single isomer, unassigned; (+)) [Example 192, (+)-6-(4-Chlorophenyl)-N-(2-cyclopropyl-2-hydroxyethyl)-2-(3-fluorophenyl)-3-oxo-2,3-dihydropyridazine-4-carboxamide]
IC50 (AHR [1]): 1.97e-07 M | IC50 (AHR [2]; [4]): > 2e-05 M

O=C(NC(CO)C1CC1)c1cc(-c2ccc(Cl)cc2)nn(-c2cccc(F)c2)c1=O (single isomer, unassigned; (+)) [Example 195, (+)-6-(4-Chlorophenyl)-N-(1-cyclopropyl-2-hydroxyethyl)-2-(3-fluorophenyl)-3-oxo-2,3-dihydropyridazine-4-carboxamide]
IC50 (AHR [1]): 2.5e-07 M | IC50 (AHR [2]; [4]): > 2e-05 M

CC(CO)CNC(=O)c1cc(-c2ccc(Cl)cc2)nn(-c2cccc(F)c2)c1=O (single isomer, unassigned; (+)) [Example 201, (+)-6-(4-Chlorophenyl)-2-(3-fluorophenyl)-N-(3-hydroxy-2-methylpropyl)-3-oxo-2,3-dihydropyridazine-4-carboxamide]
IC50 (AHR [1]): 8.64e-08 M | IC50 (AHR [2]; [3]): > 2e-05 M

CC(CCO)NC(=O)c1cc(-c2ccc(Cl)cc2)nn(-c2cccc(F)c2)c1=O (single isomer, unassigned; (+)) [Example 207, (+)-6-(4-Chlorophenyl)-2-(3-fluorophenyl)-N-(4-hydroxybutan-2-yl)-3-oxo-2,3-dihydropyridazine-4-carboxamide]
IC50 (AHR [1]): 6.29e-08 M | IC50 (AHR [2]; [3]): > 2e-05 M

O=C(NC(CO)C1CCC1)c1cc(-c2ccc(Cl)cc2)nn(-c2cccc(F)c2)c1=O (single isomer, unassigned; (+)) [Example 210, (+)-6-(4-Chlorophenyl)-N-(1-cyclobutyl-2-hydroxyethyl)-2-(3-fluorophenyl)-3-oxo-2,3-dihydropyridazine-4-carboxamide]
IC50 (AHR [1]): 4.12e-07 M | IC50 (AHR [2]; [3]): > 2e-05 M

O=C(NCC(O)C(F)F)c1cc(-c2ccc(Cl)cc2)nn(-c2cccc(F)c2)c1=O (single isomer, unassigned; (+)) [Example 223, (+)-6-(4-Chlorophenyl)-N-(3,3-difluoro-2-hydroxypropyl)-2-(3-fluorophenyl)-3-oxo-2,3-dihydropyridazine-4-carboxamide]
IC50 (AHR [1]): 1.28e-07 M | IC50 (AHR [2]; [4]): > 2e-05 M

O=C(NC(CO)CCO)c1cc(-c2ccc(Cl)cc2)nn(-c2cccc(F)c2)c1=O (single isomer, unassigned; (+)) [Example 225, (+)-6-(4-Chlorophenyl)-N-(1,4-dihydroxybutan-2-yl)-2-(3-fluorophenyl)-3-oxo-2,3-dihydropyridazine-4-carboxamide]
IC50 (AHR [1]): 2.41e-07 M | IC50 (AHR [2]; [3]): > 2e-05 M

O=C(NCC(O)C(F)(F)F)c1cc(-c2ccc(C(F)(F)F)cc2)nn(-c2cccc(F)c2)c1=O (single isomer, unassigned; (+)) [Example 244]
IC50 (AHR [1]): 3.17e-08 M | IC50 (AHR [2]; [4]): > 2e-05 M

O=C(NC(CCO)C(F)(F)F)c1cc(-c2ccc(Cl)cc2)nn(-c2cccc(F)c2)c1=O (single isomer, unassigned; (+)) [Example 343, (+)-6-(4-chlorophenyl)-2-(3-fluorophenyl)-3-oxo-N-(1,1,1-trifluoro-4-hydroxybutan-2-yl)-2,3-dihydropyridazine-4-carboxamide]
IC50 (AHR [1]): 1.49e-08 M | IC50 (AHR [2]; [4]): > 2e-05 M

O=C(NC(CO)C1CC1)c1cc(-c2ccc(C(F)(F)F)cc2)nn(-c2cccc(F)c2)c1=O (single isomer, unassigned; (+)) [Example 352, (+)-N-(1-cyclopropyl-2-hydroxyethyl)-2-(3-fluorophenyl)-3-oxo-6-[4-(trifluoromethyl)phenyl]-2,3-dihydropyridazine-4-carboxamide]
IC50 (AHR [1]): 1e-07 M | IC50 (AHR [2]; [4]): > 2e-05 M

O=C(NC(CO)C(F)(F)F)c1cc(-c2ccc(Cl)cc2)nn(-c2cccc(F)c2)c1=O (single isomer, unassigned; (-)) [Example 98, (−)-6-(4-Chlorophenyl)-2-(3-fluorophenyl)-3-oxo-N-(1,1,1-trifluoro-3-hydroxypropan-2-yl)-2,3-dihydropyridazine-4-carboxamide]
IC50 (AHR [1]): > 2e-05 M | IC50 (AHR [2]; [3]): > 2e-05 M

O=C(NCC(O)C1CC1)c1cc(-c2ccc(Cl)cc2)nn(-c2cccc(F)c2)c1=O (single isomer, unassigned; (-)) [Example 191, (−)-6-(4-Chlorophenyl)-N-(2-cyclopropyl-2-hydroxyethyl)-2-(3-fluorophenyl)-3-oxo-2,3-dihydropyridazine-4-carboxamide]
IC50 (AHR [1]): 1.1e-07 M | IC50 (AHR [2]; [3]): > 2e-05 M

O=C(NC(CO)C1CC1)c1cc(-c2ccc(Cl)cc2)nn(-c2cccc(F)c2)c1=O (single isomer, unassigned; (-)) [Example 194, (−)-6-(4-Chlorophenyl)-N-(1-cyclopropyl-2-hydroxyethyl)-2-(3-fluorophenyl)-3-oxo-2,3-dihydropyridazine-4-carboxamide]
IC50 (AHR [1]): 1.21e-08 M | IC50 (AHR [2]; [3]): > 2e-05 M

CC(CO)CNC(=O)c1cc(-c2ccc(Cl)cc2)nn(-c2cccc(F)c2)c1=O (single isomer, unassigned; (-)) [Example 202, (−)-6-(4-Chlorophenyl)-2-(3-fluorophenyl)-N-(3-hydroxy-2-methylpropyl)-3-oxo-2,3-dihydropyridazine-4-carboxamide]
IC50 (AHR [1]): 1.02e-07 M | IC50 (AHR [2]; [4]): > 2e-05 M

CC(CCO)NC(=O)c1cc(-c2ccc(Cl)cc2)nn(-c2cccc(F)c2)c1=O (single isomer, unassigned; (-)) [Example 208, (−)-6-(4-Chlorophenyl)-2-(3-fluorophenyl)-N-(4-hydroxybutan-2-yl)-3-oxo-2,3-dihydropyridazine-4-carboxamide]
IC50 (AHR [1]): 2e-07 M | IC50 (AHR [2]; [4]): > 2e-05 M

O=C(NC(CO)CCO)c1cc(-c2ccc(Cl)cc2)nn(-c2cccc(F)c2)c1=O (single isomer, unassigned; (-)) [Example 226, (−)-6-(4-Chlorophenyl)-N-(1,4-dihydroxybutan-2-yl)-2-(3-fluorophenyl)-3-oxo-2,3-dihydropyridazine-4-carboxamide]
IC50 (AHR [1]): 1.42e-07 M | IC50 (AHR [2]; [4]): > 2e-05 M

O=C(NCC(O)C(F)(F)F)c1cc(-c2ccc(C(F)(F)F)cc2)nn(-c2cccc(F)c2)c1=O (single isomer, unassigned; (-)) [Example 243]
IC50 (AHR [1]): 3.13e-08 M | IC50 (AHR [2]; [3]): > 2e-05 M

COCCC(CO)NC(=O)c1cc(-c2ccc(C(F)(F)F)cc2)nn(-c2cccc(F)c2)c1=O (single isomer, unassigned; (-)) [Example 313, (−)-2-(3-fluorophenyl)-N-(1-hydroxy-4-methoxybutan-2-yl)-3-oxo-6-[4-(trifluoromethyl)-phenyl]-2,3-dihydropyridazine-4-carboxamide]
IC50 (AHR [1]): 1.67e-08 M | IC50 (AHR [2]; [3]): > 2e-05 M

O=C(NC(CCO)C(F)(F)F)c1cc(-c2ccc(Cl)cc2)nn(-c2cccc(F)c2)c1=O (single isomer, unassigned; (-)) [Example 342, (−)-6-(4-chlorophenyl)-2-(3-fluorophenyl)-3-oxo-N-(1,1,1-trifluoro-4-hydroxybutan-2-yl)-2,3-dihydropyridazine-4-carboxamide]
IC50 (AHR [1]): 4.46e-07 M | IC50 (AHR [2]; [3]): > 2e-05 M

O=C(NC(CO)C1CC1)c1cc(-c2ccc(C(F)(F)F)cc2)nn(-c2cccc(F)c2)c1=O (single isomer, unassigned; (-)) [Example 351, (−)-N-(1-cyclopropyl-2-hydroxyethyl)-2-(3-fluorophenyl)-3-oxo-6-[4-(trifluoromethyl)phenyl]-2,3-dihydropyridazine-4-carboxamide]
IC50 (AHR [1]): 4.84e-09 M | IC50 (AHR [2]; [3]): > 2e-05 M

Cc1ccc(-c2cc(C(=O)NCC(O)C(F)(F)F)c(=O)n(-c3cccc(F)c3)n2)cc1 (single isomer, unassigned; enantiomer 1) [Example 5, 2-(3-Fluorophenyl)-6-(4-methylphenyl)-3-oxo-N-(3,3,3-trifluoro-2-hydroxypropyl)-2,3-dihydropyridazine-4-carboxamide, enantiomer 1]
IC50 (AHR [1]): 1.65e-08 M | IC50 (AHR [2]; [3]): > 2e-05 M

Cc1ccc(-c2cc(C(=O)NCC(C)O)c(=O)n(-c3cccc(F)c3)n2)cc1 (single isomer, unassigned; enantiomer 1) [Example 14, 2-(3-Fluorophenyl)-N-(2-hydroxypropyl)-6-(4-methylphenyl)-3-oxo-2,3-dihydropyridazine-4-carboxamide, Enantiomer 1]
IC50 (AHR [1]): 1.75e-07 M | IC50 (AHR [2]; [3]): > 2e-05 M
